Results published in patent US7884124B2, “Fluoro-substituted inhibitors of D-amino acid oxidase” (Sepracor Inc., priority 2006, dated 2011).
Like-named read-outs stand apart in the source and are kept apart here.

Assays:
[1] = system: D-Serine Levels in the cerebellum; assay: In vivo elevation of D-serine levels in the cerebellum (LC/MS/MS); settings: Mus musculus, ip, mice, read-out: Fold increase in D-serine in the cerebellum over vehicle; for response vs control in vivo at 10 mg/kg: 10 mg/kg i.p.; for response vs control in vivo at 50 mg/kg: 50 mg/kg i.p.
Experimental: In another example, the compounds activity is determined by measuring D-serine levels in vivo. Elevation of the D-serine level in a certain brain area (e.g., the cerebellum) of a test animal (e.g., mouse, rat, pig and the like) is indicative of DAAO inhibition in vivo. An exemplary assay format, which measures D-serine levels (LC/MS/MS) in the cerebellum of mice two hours and six hours after intraperitoneal (i.p.) dosing, is described herein (e.g., Example 9). Increases in D-serine levels were determined through comparison with vehicle. Useful variations of this assay will be apparent to those of skill in the art. Compounds of the invention are judged to be sufficiently active in this assay when at least one, preferably at least two, more preferably at least three and most preferably all four of the following criteria are met:
Mice (C57BL/6, 8-9 weeks of age) were dosed intraperitoneally at 10 mL/kg with 50 mg/kg or 10 mg/kg of compound suspended in 45% (w/v) hydroxy-β-cyclodextrin vehicle. Animals were sacrificed at either 2 or 6 hours post compound administration with an N=3 per time point. At sacrifice, trunk blood was collected into tubes containing potassium EDTA, which were then centrifuged to permit isolation of plasma. The cerebellum from each animal was dissected. Plasma and cerebellum samples were stored at −80° C. until samples were analyzed (LC/MS/MS).

Human DAAO = Human DAAO (Homo sapiens, UniProt P14920); assay: D-Amino Acid Oxidase Enzyme Assay (D-serine substrate, horseradish peroxidase/Amplex Red coupled fluorescence); format: biochemical
Sequence of Human DAAO (P14920 whole entry): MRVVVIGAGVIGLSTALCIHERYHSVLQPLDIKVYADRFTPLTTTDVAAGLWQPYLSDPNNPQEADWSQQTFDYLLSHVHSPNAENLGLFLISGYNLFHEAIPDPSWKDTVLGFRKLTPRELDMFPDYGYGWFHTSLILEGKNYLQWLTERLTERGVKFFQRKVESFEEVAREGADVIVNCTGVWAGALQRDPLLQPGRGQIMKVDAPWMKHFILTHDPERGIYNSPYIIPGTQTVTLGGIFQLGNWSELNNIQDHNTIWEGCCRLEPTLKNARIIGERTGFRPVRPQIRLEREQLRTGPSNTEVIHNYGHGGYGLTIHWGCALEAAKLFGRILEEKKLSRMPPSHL
Experimental: This coupled reaction uses the enzyme substrate Amplex Red (Molecular Probes), which is converted to the fluorescent reaction product, resorufin (excitation 530-560 nm; emission ˜590 nm). All reagents were prepared in 50 mM sodium phosphate buffer at pH 7.4 and inhibition curves were generated at this pH.
The final concentrations of components in 200 μl total volume per well (black clear-bottom 96-well plate, Costar) were:
(a) Horseradish peroxidase: 4 Units per ml
(d) Amplex Red reagent: 50 uM
The reactions were initiated by addition of DAAO enzyme while the fluorescence was monitored. […] Inhibition curves were generated in the presence of varying concentrations of the inhibitor and IC50 values were calculated for each inhibitor.

[2] = D-serine 5 mM, pH 7.4, read-out: Human DAAO Inhibition (IC50)

IC50 (Human DAAO; [2])	inhibition at 100 µM (Human DAAO)	SMILES	response vs control in vivo at 10 mg/kg ([1]; 2 h)	response vs control in vivo at 10 mg/kg ([1]; 6 h)	response vs control in vivo at 50 mg/kg ([1]; 2 h)	response vs control in vivo at 50 mg/kg ([1]; 6 h)	IC50 (Human DAAO)
< 25 nM		O=C(O)c1cc2occ(F)c2[nH]1 [Compound 74, 3-fluoro-4H-furo[3,2-b]pyrrole-5-carboxylic acid]	> 200%	150 to 200%	> 200%	> 200%	
< 100000 nM		O=C(O)c1cc2oc(Cl)cc2[nH]1 [Compound 23, 2-chloro-4H-furo[3,2-b]pyrrole-5-carboxylic acid]					
< 100 nM		O=C(O)c1[nH]c2ccsc2c1Cl [Compound 70, 6-chloro-4H-thieno[3,2-b]pyrrole-5-carboxylic acid]	< 150%	< 150%			
< 1000 nM		O=C(O)c1[nH]c2ccoc2c1Br [Compound 72, 6-bromo-4H-furo[3,2-b]pyrrole-5-carboxylic acid]	< 150%	< 150%	< 150%	< 150%	
< 100 nM		O=C(O)c1[nH]c2sccc2c1F [Compound 82, 4-fluoro-6H-thieno[2,3-b]pyrrole-5-carboxylic acid]					
< 1000 nM		O=C(O)c1[nH]c2sccc2c1Br [Compound 64, 4-bromo-6H-thieno[2,3-b]pyrrole-5-carboxylic acid]	< 150%	< 150%	< 150%	< 150%	
< 25 nM		O=C(O)c1cc2scc(Cl)c2[nH]1 [Compound 67, 3-chloro-4H-thieno[3,2-b]pyrrole-5-carboxylic acid]	< 150%	< 150%	< 150%	< 150%	
< 25 nM		O=C(O)c1cc2cc(F)sc2[nH]1 [Compound 66, 2-fluoro-6H-thieno[2,3-b]pyrrole-5-carboxylic acid]	150 to 200%	< 150%	> 200%	150 to 200%	
	33%	O=C(O)c1[nH]c2sc(Br)cc2c1Br [Compound 84, 2,4-dibromo-6H-thieno[2,3-b]pyrrole-5-carboxylic acid]					
< 100000 nM		O=C(O)c1cc2sc(Cl)cc2[nH]1 [Compound 4, 2-chloro-4H-thieno[3,2-b]pyrrole-5-carboxylic acid]			< 150%	< 150%	
< 1000 nM		O=C(O)c1cc2c(Br)csc2[nH]1 [Compound 8, 3-bromo-6H-thieno[2,3-b]pyrrole-5-carboxylic acid]	< 150%	< 150%	150 to 200%	150 to 200%	
< 100 nM		O=C(O)c1[nH]c2ccoc2c1Cl [Compound 79, 6-chloro-4H-furo[3,2-b]pyrrole-5-carboxylic acid]					
< 100000 nM		O=C(O)c1cc2cc(Br)sc2[nH]1 [Compound 65, 2-bromo-6H-thieno[2,3-b]pyrrole-5-carboxylic acid]					
< 25 nM		O=C(O)c1[nH]c2ccsc2c1F [Compound 54, 6-fluoro-4H-thieno[3,2-b]pyrrole-5-carboxylic acid]	> 200%	> 200%			
< 100000 nM		O=C(O)c1cc2cc(Cl)sc2[nH]1 [Compound 80, 2-chloro-6H-thieno[2,3-b]pyrrole-5-carboxylic acid]					
< 100 nM		O=C(O)c1cc2c(Cl)csc2[nH]1 [Compound 81, 3-chloro-6H-thieno[2,3-b]pyrrole-5-carboxylic acid]					
< 100 nM		O=C(O)c1[nH]c2sccc2c1Cl [Compound 69, 4-chloro-6H-thieno[2,3-b]pyrrole-5-carboxylic acid]					
< 1000 nM		O=C(O)c1[nH]c2ccsc2c1Br [Compound 71, 6-bromo-4H-thieno[3,2-b]pyrrole-5-carboxylic acid]	< 150%	< 150%			
< 100000 nM		O=C(O)c1cc2sc(Br)c(Br)c2[nH]1 [Compound 6, 2,3-dibromo-4H-thieno[3,2-b]pyrrole-5-carboxylic acid]					
< 25 nM		O=C(O)c1cc2c(F)csc2[nH]1 [Compound 68, 3-fluoro-6H-thieno[2,3-b]pyrrole-5-carboxylic acid]	< 150%	< 150%	150 to 200%	150 to 200%	
< 100 nM		O=C(O)c1cc2occ(Br)c2[nH]1 [Compound 30, 3-bromo-4H-furo[3,2-b]pyrrole-5-carboxylic acid]	< 150%	< 150%	150 to 200%	< 150%	
< 100 nM		O=C(O)c1cc2scc(Br)c2[nH]1 [Compound 49, 3-bromo-4H-thieno[3,2-b]pyrrole-5-carboxylic acid]			< 150%	< 150%	
< 25 nM		O=C(O)c1cc2sc(F)cc2[nH]1 [Compound 55, 2-fluoro-4H-thieno[3,2-b]pyrrole-5-carboxylic acid]	< 150%	< 150%	> 200%	150 to 200%	
< 1000 nM		O=C(O)c1cc2sc(Br)cc2[nH]1 [Compound 5, 2-bromo-4H-thieno[3,2-b]pyrrole-5-carboxylic acid]	< 150%	< 150%	150 to 200%	< 150%	
		O=C(O)c1cc2occ(Cl)c2[nH]1 [Compound 76, 3-chloro-4H-furo[3,2-b]pyrrole-5-carboxylic acid]	< 150%	< 150%			< 100 nM
< 100000 nM		O=C(O)c1cc2oc(Br)cc2[nH]1 [Compound 73, 2-bromo-4H-furo[3,2-b]pyrrole-5-carboxylic acid]					
< 25 nM		O=C(O)c1[nH]c2ccoc2c1F [Compound 75, 6-fluoro-4H-furo[3,2-b]pyrrole-5-carboxylic acid]	> 200%	150 to 200%	> 200%	> 200%	
< 25 nM		O=C(O)c1cc2scc(F)c2[nH]1 [Compound 56, 3-fluoro-4H-thieno[3,2-b]pyrrole-5-carboxylic acid]	150 to 200%	< 150%			
< 25 nM		O=C(O)c1cc2oc(F)cc2[nH]1 [Compound 78, 2-fluoro-4H-furo[3,2-b]pyrrole-5-carboxylic acid]					
